Patent US9447040B2, “Tricyclic compounds, compositions comprising them and uses thereof” (YISSUM RESEARCH DEVELOPMENT COMPANY OF THE HEBREW …, priority 2011, dated 2016)
Values joined by “and” are separate entries in the source; they are usually repeats but may differ in a detail not shown here. Identical values can stand only once. “Also recorded” adds a separate entry of the source.

How the values were obtained:
nap WAT = test: Intra-nap fat-pad injection to Psammomys on high-fat diet, nap WAT; assay type: in vivo
Description: Ten 2-month old female pasmmomys were subjected to high-fat diet for 5 weeks prior to commencement of experiment.
0.1 ml vehicle (2.3% sodium decanoate (C10, Sigma, C4151), 2.3% sodium dodecanoate (C12, Sigma, L9755), 10% Solutol HS 15 (BASF, cat#06466701), 40% Propylene-Glycol (Sigma, P4347) and 45% Triacetin (Aldrich, cat#525073))
0.1 ml MTK-012 (concentration of 4 mg/ml in above vehicle).
0.1 ml MTK-013 (concentration of 4 mg/ml in above vehicle).
Intra nap fat-pad injections of each composition were administered to animals in each treatment groups (3, 3, and 4 animals in each treatment group respectively), twice a week for 2 weeks, while on high-fat diet. All animals were sacrificed after 4 days from last injection.
Table 1 below provides the results of nap WAT weight after 4 days from treatment.

[1] = target: protein kinase CDC42-binding-protein-kinase-alpha (CDC42BPA or MRCKA) (Homo sapiens, UniProt Q5VT25); test: screening against 191 different protein kinases; assay type: biochemical; conditions: screened against 191 different protein kinases
protein kinase CDC42-binding-protein-kinase-alpha (CDC42BPA or MRCKA), sequence (Q5VT25 whole entry): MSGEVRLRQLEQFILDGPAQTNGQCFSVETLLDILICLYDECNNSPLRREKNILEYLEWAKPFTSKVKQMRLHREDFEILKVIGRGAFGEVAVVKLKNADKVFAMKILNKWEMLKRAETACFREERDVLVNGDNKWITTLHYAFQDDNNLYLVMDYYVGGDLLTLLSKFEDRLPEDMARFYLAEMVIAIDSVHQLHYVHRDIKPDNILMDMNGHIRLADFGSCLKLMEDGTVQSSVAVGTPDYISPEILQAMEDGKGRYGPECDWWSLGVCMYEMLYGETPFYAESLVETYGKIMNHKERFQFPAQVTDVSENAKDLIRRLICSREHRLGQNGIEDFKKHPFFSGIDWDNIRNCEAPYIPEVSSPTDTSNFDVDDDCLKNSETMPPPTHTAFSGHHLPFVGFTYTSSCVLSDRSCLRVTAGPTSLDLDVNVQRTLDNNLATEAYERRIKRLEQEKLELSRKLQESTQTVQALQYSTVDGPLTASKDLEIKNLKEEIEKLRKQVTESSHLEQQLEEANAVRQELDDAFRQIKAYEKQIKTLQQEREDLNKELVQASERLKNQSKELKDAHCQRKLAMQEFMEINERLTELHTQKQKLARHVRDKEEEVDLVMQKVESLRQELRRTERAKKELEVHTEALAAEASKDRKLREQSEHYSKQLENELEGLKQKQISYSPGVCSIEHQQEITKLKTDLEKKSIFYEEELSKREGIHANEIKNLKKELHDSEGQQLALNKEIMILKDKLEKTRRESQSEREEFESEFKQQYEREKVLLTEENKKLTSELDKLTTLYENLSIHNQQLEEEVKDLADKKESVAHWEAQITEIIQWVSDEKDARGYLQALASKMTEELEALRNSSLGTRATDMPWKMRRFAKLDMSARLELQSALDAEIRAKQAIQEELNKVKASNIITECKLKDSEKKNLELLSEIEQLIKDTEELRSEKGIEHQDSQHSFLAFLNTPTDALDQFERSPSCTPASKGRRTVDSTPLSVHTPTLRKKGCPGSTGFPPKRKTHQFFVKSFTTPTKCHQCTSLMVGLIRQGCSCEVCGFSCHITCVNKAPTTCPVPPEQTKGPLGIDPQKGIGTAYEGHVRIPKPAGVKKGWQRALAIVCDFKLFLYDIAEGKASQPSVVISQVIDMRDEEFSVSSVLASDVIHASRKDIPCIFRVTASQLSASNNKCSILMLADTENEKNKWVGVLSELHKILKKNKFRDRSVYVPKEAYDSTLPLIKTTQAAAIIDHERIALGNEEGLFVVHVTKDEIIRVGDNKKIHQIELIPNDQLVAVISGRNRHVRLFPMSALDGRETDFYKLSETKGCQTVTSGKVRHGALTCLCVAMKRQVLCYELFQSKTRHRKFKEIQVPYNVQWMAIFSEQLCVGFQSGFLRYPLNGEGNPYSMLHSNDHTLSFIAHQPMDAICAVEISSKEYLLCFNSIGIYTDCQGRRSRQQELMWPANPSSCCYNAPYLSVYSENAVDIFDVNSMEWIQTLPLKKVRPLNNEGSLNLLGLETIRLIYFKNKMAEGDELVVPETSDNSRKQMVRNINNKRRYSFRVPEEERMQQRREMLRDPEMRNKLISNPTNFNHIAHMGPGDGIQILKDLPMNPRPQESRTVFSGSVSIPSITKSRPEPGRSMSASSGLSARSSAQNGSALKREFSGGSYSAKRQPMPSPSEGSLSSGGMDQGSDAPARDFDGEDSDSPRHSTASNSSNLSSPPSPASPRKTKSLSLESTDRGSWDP

abdominal adipose tissue = test: Intraperitoneal (i.p.) injection to mice, gross pathology and abdominal fat; assay type: in vivo
Description: 42 wks old male mice (35-42 g body wt.) were i.p. injected with either vehicle (=Control, 10 mice) or with MTK-012 dissolved in that vehicle (10 mice).
Vehicle composition: aqueous solution of 4% Tween20 (Sigma, P7949) and 20% Propylene-Glycol (Sigma, P4347).
MTK-012 was dissolved in vehicle composition at a final concentration of 5 mg/ml.
The mice were initially (t=0) injected a dose of 20 mg/kg, or the equivalent volume of vehicle to the controls (solid arrow in FIG. 1). Three weeks later the mice were injected a double dose of 40 mg/kg of MTK-012 or 40 mg/kg of vehicle (broken arrow in FIG. 1).
Body weight was measured once a week; the results are shown in FIG. 1 and expressed as the % change in body weight relative to the body weight on day 0.
At t=6 wks the animals were sacrificed and dissected for gross pathology.

s.c. adipose tissue = test: Single subcutaneous (s.c.) injection to rats, s.c. fat; assay type: in vivo, SD male rats; conditions: single s.c. 25 mg/kg at 5 sites on left side, examined after 3 weeks
Description: SD male rats of about 400 g body weight were s.c. injected once (t=0) following light anesthesia with Ketamine-Xylazine.
MTK-012, at a final concentration of 10 mg/ml, was dissolved in a vehicle containing: 2.3% sodium decanoate (C10, Sigma, C4151), 2.3% sodium dodecanoate (C12, Sigma, L9755), 10% Solutol HS 15 (BASF, cat#06466701), 40% Propylene-Glycol (Sigma, P4347) and 45% Triacetin (Aldrich, cat#525073).
The injection of 1 ml MTK-012 (=25 mg/kg) was performed as follows: the left side of the rats body was shaved and s.c. injections, 0.2 ml each, were administered at 5 sites, equally distributed along the left side of the rats. The rats were sacrificed after 3 weeks and inner part of their skin was examined. It is evident that the s.c. adipose tissue was reduced (visibly shown) in the treated rats (FIGS. 3B and 3D), as manifested by the exposure of the underneath blood vessels, as compared with the same anatomical area in FIGS. 3A and 3C. It should be noted that although the injection was performed unilaterally, the effect expand to the entire subcutis.

inhibition of protein kinase CDC42BPA (MRCKA) in screen [1]: significantly selective inhibition
general condition of treated animals (abdominal adipose tissue; 42 wks old male mice, i.p. 20 mg/kg at t=0 and 40 mg/kg three weeks later): well and active, similar to the controls
gross pathology, changes other than adipose tissue (abdominal adipose tissue; mice sacrificed at t=6 wks, i.p. 20 mg/kg then 40 mg/kg): No apparent change
SMILES: C[N+](C)(C)CCCCCn1c2ccc(Br)cc2c2cc(Br)ccc21.[Cl-] [MTK-012, 5-(3,6-dibromo-9H-carbazol-9-yl)-N,N,N-trimethylpentan-1-aminium chloride]
Nap WAT (g), single animals (nap WAT; 0.1 ml of 4 mg/ml intra nap fat-pad, twice a week for 2 weeks, 4 days after last injection): 3.7 g and 4.1 g and 4.6 g and 3.0 g
Nap WAT Average (g) ± SEM (nap WAT; 0.1 ml of 4 mg/ml intra nap fat-pad, twice a week for 2 weeks, 4 days after last injection, vehicle 5.30 ± 0.21): 3.85 ± 0.34 g
reduction in WAT as compared with vehicle (nap WAT; nap WAT weight 4 days after treatment): significant reduction
abdominal adipose tissue / abdominal fat-mass (abdominal adipose tissue; mice at t=6 wks, i.p. 20 mg/kg then 40 mg/kg, vs vehicle control): reduction in abdominal fat-mass; also recorded: ablation of the abdominal adipose tissue
s.c. adipose tissue (subcutaneous fat) (s.c. adipose tissue): reduction in subcutaneous fat; also recorded: reduced
